Source: US11345702B1 (Myoforte Therapeutics, Inc., priority 2020, dated 2022)
In brackets after ≈: the same amount, converted by molar mass. Read-outs that look alike come from different tables or passages of the source.

Experiments:
15-PGDH/HPGD = 15-PGDH/HPGD (Homo sapiens (Human), UniProt P15428); assay: hPGDH inhibitor screening biochemical assay
In short: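 Ten-point dose-response inhibition of 15-PGDH measured by fluorescence (340/485 nm) after 10 min at room temperature with PGE2 (15 μM) and NAD+ (0.25 mM), following 10 min enzyme (10 nM)–compound pre-incubation at 37 °C. Buffer: 50 mM Tris-HCl pH 7.5, 0.01% Tween 20. Percent inhibition relative to 1% DMSO; four-parameter IC50.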

[1] = Liver microsome stability assay (HLM); type: in vitro ADME; conditions: human liver microsomes
Procedure: (§1) A microsomal mixture (microsomes and Kphos buffer) was prepared at a concentration of 1.428 mg/mL in 2 mL tubes. To this microsomal mixture 1.6 μL (1 mM) of test compound and positive control were spiked; from this mixture, 70 μL was transferred to 96 well plate and pre-incubated at 37° C. for 5 min. After pre-incubation, the zero minute time point reaction was stopped using 100 μL of ice-cold acetonitrile containing internal standard and […] (3.33 mM in Kphos buffer) was added. The 45 minute time point reaction was initiated by addition of 30 μL of NADPH (3.33 mM in Kphos buffer) and incubated at 37° C. for 15 and 45 min. Reactions without NADPH and buffer controls (minus NADPH) at 0, 15, and 45 minutes were also incubated to rule out non-NADPH metabolism or chemical instability in the incubation buffer. Incubation reactions were stopped with 100 μL of ice-cold acetonitrile containing internal standard. The plates were centrifuged at 4000 RPM for 15 min and 100 μL aliquots were submitted for analysis by LC-MS/MS. (Verapamil in human liver microsomes (HLM) and rat liver microsomes (RLM) was used as positive controls. Imipramine in mouse liver microsomes (MLM) was used as a positive control.) Samples were monitored for parent compound disappearance in MRM mode (multiple reaction monitoring) using LC-MS/MS. The peak area ratios of analyte versus internal standard were used to calculate the % remaining at the end of 45 minutes in the presence of NADPH.

[2] = Liver microsome stability assay (RLM); type: in vitro ADME; conditions: rat liver microsomes
Procedure: as §1

Solubility at pH 7.4 = type: physicochemical
[3] = Liver microsome stability assay (MLM); type: in vitro ADME; conditions: mouse liver microsomes
In short: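 Mouse, rat or human liver microsomes (mixture at 1.428 mg/mL) in potassium phosphate buffer, 37 °C, incubated with compound after NADPH addition; minus-NADPH controls included. Parent loss by LC-MS/MS (MRM) with internal standard; value is % remaining at 45 min with NADPH.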

[4] = pH 7.4, aqueous buffer, read-out: Solubility: Solubility at pH 7.4
[5] = aqueous buffer, pH 7.4, 6-5 ring core, read-out: Solubility at pH 7.4
[6] = aqueous buffer, pH 7.4, phenyl core, read-out: Solubility at pH 7.4

15-PGDH/HPGD, sequence (P15428 whole entry): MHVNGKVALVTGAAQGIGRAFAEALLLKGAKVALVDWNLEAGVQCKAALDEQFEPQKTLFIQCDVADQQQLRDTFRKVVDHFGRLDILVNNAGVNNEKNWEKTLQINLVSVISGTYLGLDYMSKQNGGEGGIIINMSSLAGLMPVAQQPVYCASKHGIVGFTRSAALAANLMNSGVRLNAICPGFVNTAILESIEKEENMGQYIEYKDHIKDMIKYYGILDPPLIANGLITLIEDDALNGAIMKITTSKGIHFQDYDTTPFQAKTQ

Structure (SMILES) | IC50 (15-PGDH/HPGD; read-out: hPGDH: Average IC50) [nM] | RLM + NADPH (% remaining at 45 min) [2] [%] | solubility (Solubility at pH 7.4; [5]) [µM] | also measured
O=C(c1cnc2c(c1)c(Cl)cn2-c1cnccn1)N1CCC(F)CC1 [MF-DH-124] | < 100 | 34 | – | HLM + NADPH (% remaining at 45 min) [1]: 48%
COc1ccc(-n2c(CC#N)nc3cc(C(=O)N4CCC(F)CC4)cnc32)cc1 [MF-DH-130] | 100 to 1000 | 74 | – | HLM + NADPH (% remaining at 45 min) [1]: 68%
Cc1cncc(-n2cc(Cl)c3cc(C(=O)N4CCC(F)CC4)cnc32)n1 [MF-DH-166, (3-chloro-1-(6-methylpyrazin-2-yl)-1H-pyrrolo[2,3-b]pyridin-5-yl)(4-fluoropiperidin-1-yl)methanone] | < 100 | 33 | – | HLM + NADPH (% remaining at 45 min) [1]: 47%
Cc1ncc(-n2cc(Cl)c3cc(C(=O)N4CCC(F)CC4)cnc32)cn1 [MF-DH-169, (3-chloro-1-(2-methylpyrimidin-5-yl)-1H-pyrrolo[2,3-b]pyridin-5-yl)(4-fluoropiperidin-1-yl)methanone] | < 100 | 69 | – | HLM + NADPH (% remaining at 45 min) [1]: 71%
O=C(c1cnc2c(ccn2-c2ccc3c(c2)OCO3)c1)N1CCC(F)CC1 [MF-DH-175] | < 100 | 45 | – | HLM + NADPH (% remaining at 45 min) [1]: 117%
COc1ccc(-n2nc(Cl)c3cc(C(=O)N4CCCCC4)ccc32)cc1 [MF-DH-247] | 100 to 1000 | 22 | – | –
O=C(c1cnc2c(ccn2-c2ccc3c(c2)OC(F)(F)O3)c1)N1CCCCC1 [MF-DH-249] | < 100 | 29 | – | –
COCCc1nc2cc(C(=O)N3CCCCC3)cnc2n1-c1ccc(OC)cc1 [MF-DH-267] | 100 to 1000 | 67 | – | –
COc1ccc(-n2c(CCC(F)(F)F)nc3cc(C(=O)N4CCCCC4)cnc32)cc1 [MF-DH-268] | 100 to 1000 | 60 | – | –
COc1ccc(-n2ccc3c(C)c(C(=O)N4CCCCC4)cnc32)cc1 [MF-DH-287] | < 100 | 44 | – | –
O=C(c1ccc2c(cnn2-c2cncc(Cl)c2)c1)N1CCCCC1 [MF-DH-292] | < 100 | 27 | – | solubility (Solubility at pH 7.4; [4]): 69 µM (≈ 23.5 µg/mL)
COc1ccc(Cn2ncc3cc(-n4ccc5cc(C(=O)N6CCCCC6)cnc54)ccc32)cc1 [MF-DH-337] | < 100 | 1 | – | solubility (Solubility at pH 7.4; [4]): < 5 µM
Cc1c(C(=O)N2CCC(F)CC2)cnc2c1ccn2-c1ccc(C(N)=O)cc1 [MF-DH-380, 4-(5-(4-fluoropiperidine-1-carbonyl)-4-methyl-1H-pyrrolo[2,3-b]pyridin-1-yl)benzamide] | < 100 | – | – | solubility (Solubility at pH 7.4; [4]): 75 µM (≈ 28.5 µg/mL); MLM + NADPH (% remaining at 45 min) [3]: 89%
C[C@@H]1C[C@H](C)CN(C(=O)c2cnc3c(ccn3-c3ccc(C(N)=O)cc3)c2)C1 [MF-DH-395, 4-(5-((3R,5S)-3,5-dimethylpiperidine-1-carbonyl)-1H-pyrrolo[2,3-b]pyridin-1-yl)benzamide] | < 100 | – | – | solubility (Solubility at pH 7.4; [4]): 80 µM (≈ 30.1 µg/mL); MLM + NADPH (% remaining at 45 min) [3]: 8%
CC(C)NC(=O)c1ccc(-n2ccc3cc(C(=O)N4CCC(F)(F)CC4)cnc32)cc1 [MF-DH-404] | < 100 | – | – | solubility (Solubility at pH 7.4; [4]): < 5 µM; MLM + NADPH (% remaining at 45 min) [3]: 101%
O=C(O)c1ccc(-n2ccc3cc(C(=O)N4CCC(F)(F)CC4)cnc32)cc1 [MF-DH-424, 4-(5-(4,4-difluoropiperidine-1-carbonyl)-1H-pyrrolo[2,3-b]pyridin-1-yl)benzoic acid] | < 100 | – | – | solubility (Solubility at pH 7.4; [4]): 156 µM (≈ 60.1 µg/mL); MLM + NADPH (% remaining at 45 min) [3]: 96%
O=C(c1cnc2c(ccn2-c2cncc(-c3nnn[nH]3)c2)c1)N1CCC(F)(F)CC1 [MF-DH-453, (1-(5-(1H-tetrazol-5-yl)pyridin-3-yl)-1H-pyrrolo[2,3-b]pyridin-5-yl)(4,4-difluoropiperidin-1-yl)methanone] | < 100 | – | – | solubility (Solubility at pH 7.4; [4]): > 100 µM; MLM + NADPH (% remaining at 45 min) [3]: 116%
O=C(c1cnc2c(ccn2-c2cncc(-c3noc(=O)[nH]3)c2)c1)N1CCC(F)(F)CC1 [MF-DH-454, 3-(5-(5-(4,4-difluoropiperidine-1-carbonyl)-1H-pyrrolo[2,3-b]pyridin-1-yl)pyridin-3-yl)-1,2,4-oxadiazol-5(4H)-one] | < 100 | – | – | solubility (Solubility at pH 7.4; [4]): > 100 µM; MLM + NADPH (% remaining at 45 min) [3]: 92%
O=C(Nc1cncc(-n2ccc3cc(C(=O)N4CCC(F)(F)CC4)cnc32)c1)c1ccno1 [MF-DH-458] | < 100 | – | – | solubility (Solubility at pH 7.4; [4]): 62 µM (≈ 28.1 µg/mL); MLM + NADPH (% remaining at 45 min) [3]: 68%
COc1ccc(-n2cnc3cc(C(=O)N4CCCCC4)cnc32)cc1 [MF-PGDH-077] | < 100 | 84 | – | Solubility: Solubility at pH 7.4 (μM) (Solubility at pH 7.4; pH 7.4): 160 μM; HLM + NADPH (% remaining at 45 min) [1]: 97%
COc1ccc(-n2cnc3cc(C(=O)N4CCC(F)CC4)cnc32)cc1 [MF-PGDH-078] | < 100 | 89 | – | Solubility: Solubility at pH 7.4 (μM) (Solubility at pH 7.4; pH 7.4): 140 μM; HLM + NADPH (% remaining at 45 min) [1]: 96%

Structure (SMILES) | IC50 (15-PGDH/HPGD; read-out: hPGDH: Average IC50) [nM] | RLM + NADPH (% remaining at 45 min) [2] [%] | solubility (Solubility at pH 7.4; [5]) [µM] | also measured
COc1ccc(-n2cnc3cc(C(=O)N4CCC(F)(F)CC4)cnc32)cc1 [drawing 191] | – | – | 140 (≈ 52.1 µg/mL) | –
COc1ccc(-n2cnc3cc(C(=O)N4CCC(F)CC4)cnc32)cc1 [drawing 192] | – | – | 140 (≈ 49.6 µg/mL) | –
COc1ccc(-n2cnc3cc(C(=O)N4CCCCC4)cnc32)cc1 [drawing 193] | – | – | 160 (≈ 53.8 µg/mL) | –
O=C(c1ccc2c(c1)ncn2-c1cccc(Cl)c1)N1CCCCC1 [drawing 211] | – | – | 120 (≈ 40.8 µg/mL) | –
O=C(c1ccc2c(c1)ncn2-c1cccc(Cl)c1)N1CC2(CCC2)C1 [drawing 212] | – | – | 16 (≈ 5.63 µg/mL) | –
O=C(c1ccc2c(c1)ncn2-c1cccc(Cl)c1)N1CC2CCCC2C1 (stereo not drawn) [drawing 215] | – | – | 33 (≈ 12.1 µg/mL) | –
O=C(c1cnc2c(ccn2-c2cccc(Cl)c2)c1)N1CCCCC1 [drawing 216] | – | – | 21 (≈ 7.14 µg/mL) | IC50 (15-PGDH/HPGD; PGDH inhibitors with a 6-5 ring core, read-out: hPGDH: IC50): 1.5 nM
COc1ccc(-n2c(C3CC3)nc3cc(C(=O)N4CCCCC4)ccc32)cc1 [drawing 218] | – | – | 45 (≈ 16.9 µg/mL) | –
O=C(c1cnc2c(c1)ncn2-c1cccc(Cl)c1)N1CCCCC1 [drawing 219] | – | – | 150 (≈ 51.1 µg/mL) | –
O=C(c1cnc2c(-c3cccc(Cl)c3)cnn2c1)N1CCCCC1 [drawing 220] | – | – | < 5 | –
O=C(c1ccc2c(c1)nnn2-c1cccc(Cl)c1)N1CCCCC1 [drawing 221] | – | – | 68 (≈ 23.2 µg/mL) | –
COc1ccc(-n2cnc3cc(C(=O)N4CCC(F)CC4)ccc32)cc1 [drawing 222] | – | – | 160 (≈ 56.5 µg/mL) | –
COc1ccc(-n2cnc3cc(C(=O)N4CCCCC4)ccc32)cc1 [drawing 223] | – | – | 150 (≈ 50.3 µg/mL) | –
O=C(c1ccc2c(cnn2-c2cccc(Cl)c2)c1)N1CCCCC1 [drawing 224] | – | – | 6.9 (≈ 2.34 µg/mL) | –
O=C(c1ccc2c(ccn2-c2cccc(Cl)c2)c1)N1CCCCC1 [drawing 225] | – | – | < 5 | –
COc1ccccc1C(=O)N(C)c1ccc(C(=O)N2CCCCC2)cc1 [drawing 229] | – | – | – | solubility (Solubility at pH 7.4; [6]): 160 µM (≈ 56.4 µg/mL)
O=C(c1ccc(COc2ccccc2Cl)cc1)N1CCCCC1 [drawing 230] | – | – | – | solubility (Solubility at pH 7.4; [6]): 38 µM (≈ 12.5 µg/mL)
COc1ccccc1C(=O)Nc1ccc(C(=O)N2CCCCC2)cc1 [drawing 231] | – | – | – | solubility (Solubility at pH 7.4; [6]): 29 µM (≈ 9.81 µg/mL)
COc1ccccc1NC(=O)c1ccc(C(=O)N2CCCCC2)cc1 [drawing 232] | – | – | – | solubility (Solubility at pH 7.4; [6]): 88 µM (≈ 29.8 µg/mL)
O=C(c1ccc(COc2ccccc2Br)cc1)N1CCCCC1 [drawing 233] | – | – | – | solubility (Solubility at pH 7.4; [6]): 6.3 µM (≈ 2.36 µg/mL)
